According to patent publication US20070003636A1, “Statins (HMG-COA reductase inhibitors) as a novel type of immunomodulator, immunosuppressor and anti-inflammatory agent” (priority 2003, published 2007):

Columns and labels:
[1] = system: CD40; experiment: IFN-γ induced CD40 expression on vascular endothelial cells (Western blot); type: cell-based, human; conditions: ECs; for CD40 expression with co-treatment by IFN-γ and statin: IFN-γ 500 U/ml, 24 hrs, Western blotting
Description: Cell isolation and culture. […] Human vascular smooth muscle (SMCs) cells were isolated from human saphenous veins and mammary arteries by explant outgrowth, and cultured in DMEM (BioWhittaker) supplemented with 1% L-glutamine (BioWhittaker), 1% penicillin/streptomycin, and 10% FCS. Both cell types were subcultured following trypsinization (0.5% trypsin (Worthington Biochemicals)/0.2% EDTA (EM Science)) in P100-culture dishes (Becton Dickinson).
Western blots analysis. Cells were harvested in ice-cold RIPA solubilization buffer, and total amounts of protein were determined using a bicinchoninic acid quantification assay (Pierce, Rockford, Ill.). Twenty μg of total protein/lane were separated by SDS/PAGE under reducing conditions and blotted to polyvinylidene difluoride membranes (Millipore Corp., Bedford, Mass.) using a semidry blotting apparatus (Bio-Rad, Hercules, Calif.). Blots were blocked overnight in 5% defatted dry milk/PBS/0.1% Tween, and then incubated for 1 hour at room temperature with primary antibody (1:40) (rabbit […] anti-CD40 Santa Cruz, San Diego, Calif.), or mouse monoclonal anti-human […] (1:5000) (Pharmingen) for control of loading. This was followed by a 1 hour incubation with secondary peroxidase-conjugated antibody (1:10,000), (Jackson Immunoresearch, West Grove, Pa.). […] Immunoreactivity was detected using the enhanced chemiluminescence detection method according to the manufacturer's instructions. (Amersham, Dübendorf Switzerland), and subsequent exposure of the membranes to x-ray film. Analysis of quantification of detection was performed using AIDA software.

[2] = system: CRP; conditions: cited from earlier work
[3] = system: MHC class II; conditions: ECs, IFN-γ 500 U/ml 48 hrs; compared among Atorvastatin, Lovastatin, Pravastatin
Experimental: Cell isolation and culture. […] Flow cytometry. […] Data were analyzed using […] software (Becton Dickinson).

[4] = system: CD40 mediated pathways; experiment: CD40L induced cytokine release (IL-6, IL-8, MCP-1) from ECs, ELISA; type: cell-based, human; conditions: added to statin and CD154
Experimental: Cytokines assay. […] Experiments were performed in the presence of polymyxin B (1 μg/ml). Antibody binding was detected by adding substrate (R&D), and absorbance measured at 450 nm using a Dynatech plate reader. The amount of IL-6, IL-8 and MCP-1 detected was calculated from a standard curve prepared with the recombinant protein. Samples were assayed in duplicates.
To investigate the functional consequences of inhibition of CD40 expression by statins on Endothelial Cells activation by CD40L, secreted cytokines were analyzed such as Interleukin-6 (IL-6), interleukin-8 (IL-8), macrophages chemoattractant protein-1 (MCP-1). Addition of an anti-CD40LmAb blocked the induction of all three secreted cytokines in response to CD40 ligation.

| Compound | effect on IFN-γ induced CD40 in the presence of L-mevalonate [1] | IFN-γ induction of CD40, dose dependence ([1]; IFN-γ 500 U/ml 24 hrs) | concentration range over which effect on CD40 was observed ([1]; IFN-γ 500 U/ml 24 hrs) [µM] | CD40 expression with co-treatment by IFN-γ and statin [1] | CD40 expression, treatment with statin alone ([1]; without IFN-γ) | CRP levels ([2]; 80 mg/day) | effect on biological markers of inflammation ([2]; in vivo) | potency as MHC class II repressor [3] | reversal of statin effect on cytokine secretion [4] |
| --- | --- | --- | --- | --- | --- | --- | --- | --- | --- |
| CC(C)c1c(C(=O)Nc2ccccc2)c(-c2ccccc2)c(-c2ccc(F)cc2)n1CC[C@@H](O)C[C@@H](O)CC(=O)O [Atorvastatin] | markedly reduced | repressed this induction of CD40 in a dose-dependant manner | 0.08 to 5 | decreased | had an effect on CD40 expression | decrease in CRP levels | dose-dependent | most powerful MHC class II repressor | – |
| CC[C@H](C)C(=O)O[C@H]1C[C@@H](C)C=C2C=C[C@H](C)[C@H](CC[C@@H]3C[C@@H](O)CC(=O)O3)[C@H]21 [lovastatin, Lovastatin] | – | – | – | decreased | – | – | – | – | – |
| L-mevalonate | – | – | – | – | – | – | – | – | significantly reverses the process |
